Data reported in ChEMBL document CHEMBL4831544, “Discovery of IHMT-EZH2-115 as a Potent and Selective Enhancer of Zeste Homolog 2 (EZH2) Inhibitor for the Treatment of B-Cell Lymphomas” (J Med Chem, 2021).
The source made the active and inactive calls. No cut-off for these calls is given here.

How the values were obtained:
Pfeiffer [1] = assay: Antitumor activity against human Pfeiffer cells harboring EZH2 A677G mutant xenografted in NCG mouse assessed as tumor growth inhibition at 50 mg/kg, po BID via gavage measured after 28 days relative to control; type: functional; settings: 672 h, time 28 day, read-out: TGI
Raji = assay: Antiproliferative activity against human Raji cells expressing wild type EZH2 assessed as inhibition of cell growth measured after 6 days by CellTiter-Glo luminescent assay; settings: 144 h
[2] = target: Histone-lysine N-methyltransferase EHMT2 (Homo sapiens) (UniProt Q96KQ7); assay: Inhibition of G9A (unknown origin) at 10 uM using SAM as substrate measured up to 960 mins by AlphaScreen microplate reader assay relative to control; settings: time min <=960
SU-DHL-6 = assay: Antiproliferative activity against human SU-DHL-6 cells harboring EZH2 Y641N mutant assessed as inhibition of cell growth measured after 6 days by CellTiter-Glo luminescent assay; type: functional; settings: SU-DHL-6, 144 h, time 6 day
[3] = target: Histone-lysine N-methyltransferase SMYD3 (Homo sapiens) (UniProt Q9H7B4); assay: Inhibition of SMYD3 (unknown origin) at 10 uM using SAM as substrate measured up to 960 mins by AlphaScreen microplate reader assay relative to control; settings: time min <=960
[4] = Antiproliferative activity against human WSUDLCL2 cells assessed as inhibition of cell growth measured after 6 days by CellTiter-Glo luminescent assay; type: functional; settings: WSUDLCL2, 144 h, time 6 day
[5] = Half life in mouse at 1 mg/kg, iv measured up to 24 hrs by LC-MS/MS analysis; type: ADME, organism-based; settings: in vivo
[6] = target: Histone-lysine N-methyltransferase, H3 lysine-36 specific (Homo sapiens) (UniProt Q96L73); assay: Inhibition of NSD1 (unknown origin) at 10 uM using SAM as substrate measured up to 960 mins by AlphaScreen microplate reader assay relative to control; settings: time min <=960
[7] = system: Histone-lysine N-methyltransferase EZH2 (Homo sapiens), Q15910 [Y641N]; assay: Inhibition of EZH2 Y641N mutant (unknown origin) at 10 uM using SAM as substrate measured up to 960 mins by AlphaScreen microplate reader assay relative to control; settings: time min <=960
KARPAS-422 = assay: Antitumor activity against human KARPAS-422 cells harboring EZH2 Y641N mutant xenografted in NCG mouse assessed as tumor regression at 200 mg/kg, po BID via gavage measured within 10 days; type: functional, organism-based; settings: time day <10
[8] = target: Histone-lysine N-methyltransferase SETDB1 (Homo sapiens) (UniProt Q15047); assay: Inhibition of SETDB1 (unknown origin) at 10 uM using SAM as substrate measured up to 960 mins by AlphaScreen microplate reader assay relative to control; settings: time min <=960
[9] = target: Histone-lysine N-methyltransferase SUV39H1 (Homo sapiens) (UniProt O43463); assay: Inhibition of SUV39H1 (unknown origin) at 10 uM using SAM as substrate measured up to 960 mins by AlphaScreen microplate reader assay relative to control; settings: time min <=960
[10] = target: N-lysine methyltransferase KMT5A (Homo sapiens) (UniProt Q9NQR1); assay: Inhibition of SET8 (unknown origin) at 10 uM using SAM as substrate measured up to 960 mins by AlphaScreen microplate reader assay relative to control; settings: time min <=960
[11] = system: Histone-lysine N-methyltransferase EZH2 (Homo sapiens), Q15910 [Y641S]; assay: Inhibition of EZH2 Y641S mutant (unknown origin) at 10 uM using SAM as substrate measured up to 960 mins by AlphaScreen microplate reader assay relative to control; settings: time min <=960
[12] = Apparent volume of distribution in rat at 10 mg/kg, po; type: ADME, organism-based; settings: in vivo
[13] = target: Protein arginine N-methyltransferase 5 (Homo sapiens) (UniProt O14744); assay: Inhibition of PRMT5 (unknown origin) at 10 uM using SAM as substrate measured up to 960 mins by AlphaScreen microplate reader assay relative to control; settings: time min <=960
[14] = Toxicity in NCG mouse xenografted with human KARPAS-422 cells harboring EZH2 Y641N mutant assessed as effect on body weight at 50 to 200 mg/kg, po BID via gavage measured after 28 days; type: organism-based; settings: in vivo, 672 h, dose 50-200 mg/kg, time 28 day
[15] = system: Histone-lysine N-methyltransferase EZH2 (Homo sapiens), Q15910 [UNDEFINED MUTATION]; assay: Inhibition of EZH2 A738T mutant (unknown origin) at 10 uM using SAM as substrate measured up to 960 mins by AlphaScreen microplate reader assay relative to control; settings: time min <=960
[16] = Apparent volume of distribution in mouse at 10 mg/kg, po measured up to 24 hrs by LC-MS/MS analysis; type: ADME, organism-based; settings: in vivo
[17] = Apparent volume of distribution in mouse at 1 mg/kg, iv measured up to 24 hrs by LC-MS/MS analysis; type: ADME, organism-based; settings: in vivo
[18] = AUC (0 to t) in mouse at 1 mg/kg, iv measured up to 24 hrs by LC-MS/MS analysis; type: ADME, organism-based; set-up: route intravenous, dose 1 mg/kg, time <=24; settings: in vivo
U2932 = assay: Antiproliferative activity against human U2932 cells expressing wild type EZH2 assessed as inhibition of cell growth measured after 6 days by CellTiter-Glo luminescent assay; type: functional; settings: U2932, 144 h, time 6 day
[19] = target: Histone-lysine N-methyltransferase SETD2 (Homo sapiens) (UniProt Q9BYW2); assay: Inhibition of SETD2 (unknown origin) at 10 uM using SAM as substrate measured up to 960 mins by AlphaScreen microplate reader assay relative to control; settings: time min <=960
Pfeiffer [20] = assay: Antitumor activity against human Pfeiffer cells harboring EZH2 A677G mutant xenografted in NCG mouse assessed as tumor growth inhibition at 200 mg/kg, po BID via gavage measured after 28 days relative to control; type: functional; settings: 672 h, time 28 day, read-out: TGI
[21] = AUC (0 to infinity) in rat at 1 mg/kg, iv; type: ADME, organism-based; set-up: route intravenous, time infinity, dose 1 mg/kg; settings: in vivo
[22] = target: Histone-lysine N-methyltransferase EZH1 (Homo sapiens) (UniProt Q92800); assay: Inhibition of EZH1 (unknown origin) at 10 uM using SAM as substrate measured up to 960 mins by AlphaScreen microplate reader assay relative to control; settings: time min <=960
[23] = system: Histone-lysine N-methyltransferase EZH2 (Homo sapiens), Q15910 [P132S]; assay: Inhibition of EZH2 P132S mutant (unknown origin) at 10 uM using SAM as substrate measured up to 960 mins by AlphaScreen microplate reader assay relative to control; settings: time min <=960
[24] = system: Histone-lysine N-methyltransferase EZH2 (Homo sapiens), Q15910 [A677G]; assay: Inhibition of EZH2 A677G mutant (unknown origin) at 10 uM using SAM as substrate measured up to 960 mins by AlphaScreen microplate reader assay relative to control; settings: time min <=960
[25] = Clearance in mouse at 1 mg/kg, iv measured up to 24 hrs by LC-MS/MS analysis; type: ADME, organism-based; settings: in vivo
[26] = AUC (0 to infinity) in mouse at 10 mg/kg, po measured up to 24 hrs by LC-MS/MS analysis; type: ADME, organism-based; set-up: route oral, dose 10 mg/kg, time <=24; settings: in vivo

Histone-lysine N-methyltransferase, H3 lysine-36 specific (Homo sapiens), sequence (Q96L73 whole entry): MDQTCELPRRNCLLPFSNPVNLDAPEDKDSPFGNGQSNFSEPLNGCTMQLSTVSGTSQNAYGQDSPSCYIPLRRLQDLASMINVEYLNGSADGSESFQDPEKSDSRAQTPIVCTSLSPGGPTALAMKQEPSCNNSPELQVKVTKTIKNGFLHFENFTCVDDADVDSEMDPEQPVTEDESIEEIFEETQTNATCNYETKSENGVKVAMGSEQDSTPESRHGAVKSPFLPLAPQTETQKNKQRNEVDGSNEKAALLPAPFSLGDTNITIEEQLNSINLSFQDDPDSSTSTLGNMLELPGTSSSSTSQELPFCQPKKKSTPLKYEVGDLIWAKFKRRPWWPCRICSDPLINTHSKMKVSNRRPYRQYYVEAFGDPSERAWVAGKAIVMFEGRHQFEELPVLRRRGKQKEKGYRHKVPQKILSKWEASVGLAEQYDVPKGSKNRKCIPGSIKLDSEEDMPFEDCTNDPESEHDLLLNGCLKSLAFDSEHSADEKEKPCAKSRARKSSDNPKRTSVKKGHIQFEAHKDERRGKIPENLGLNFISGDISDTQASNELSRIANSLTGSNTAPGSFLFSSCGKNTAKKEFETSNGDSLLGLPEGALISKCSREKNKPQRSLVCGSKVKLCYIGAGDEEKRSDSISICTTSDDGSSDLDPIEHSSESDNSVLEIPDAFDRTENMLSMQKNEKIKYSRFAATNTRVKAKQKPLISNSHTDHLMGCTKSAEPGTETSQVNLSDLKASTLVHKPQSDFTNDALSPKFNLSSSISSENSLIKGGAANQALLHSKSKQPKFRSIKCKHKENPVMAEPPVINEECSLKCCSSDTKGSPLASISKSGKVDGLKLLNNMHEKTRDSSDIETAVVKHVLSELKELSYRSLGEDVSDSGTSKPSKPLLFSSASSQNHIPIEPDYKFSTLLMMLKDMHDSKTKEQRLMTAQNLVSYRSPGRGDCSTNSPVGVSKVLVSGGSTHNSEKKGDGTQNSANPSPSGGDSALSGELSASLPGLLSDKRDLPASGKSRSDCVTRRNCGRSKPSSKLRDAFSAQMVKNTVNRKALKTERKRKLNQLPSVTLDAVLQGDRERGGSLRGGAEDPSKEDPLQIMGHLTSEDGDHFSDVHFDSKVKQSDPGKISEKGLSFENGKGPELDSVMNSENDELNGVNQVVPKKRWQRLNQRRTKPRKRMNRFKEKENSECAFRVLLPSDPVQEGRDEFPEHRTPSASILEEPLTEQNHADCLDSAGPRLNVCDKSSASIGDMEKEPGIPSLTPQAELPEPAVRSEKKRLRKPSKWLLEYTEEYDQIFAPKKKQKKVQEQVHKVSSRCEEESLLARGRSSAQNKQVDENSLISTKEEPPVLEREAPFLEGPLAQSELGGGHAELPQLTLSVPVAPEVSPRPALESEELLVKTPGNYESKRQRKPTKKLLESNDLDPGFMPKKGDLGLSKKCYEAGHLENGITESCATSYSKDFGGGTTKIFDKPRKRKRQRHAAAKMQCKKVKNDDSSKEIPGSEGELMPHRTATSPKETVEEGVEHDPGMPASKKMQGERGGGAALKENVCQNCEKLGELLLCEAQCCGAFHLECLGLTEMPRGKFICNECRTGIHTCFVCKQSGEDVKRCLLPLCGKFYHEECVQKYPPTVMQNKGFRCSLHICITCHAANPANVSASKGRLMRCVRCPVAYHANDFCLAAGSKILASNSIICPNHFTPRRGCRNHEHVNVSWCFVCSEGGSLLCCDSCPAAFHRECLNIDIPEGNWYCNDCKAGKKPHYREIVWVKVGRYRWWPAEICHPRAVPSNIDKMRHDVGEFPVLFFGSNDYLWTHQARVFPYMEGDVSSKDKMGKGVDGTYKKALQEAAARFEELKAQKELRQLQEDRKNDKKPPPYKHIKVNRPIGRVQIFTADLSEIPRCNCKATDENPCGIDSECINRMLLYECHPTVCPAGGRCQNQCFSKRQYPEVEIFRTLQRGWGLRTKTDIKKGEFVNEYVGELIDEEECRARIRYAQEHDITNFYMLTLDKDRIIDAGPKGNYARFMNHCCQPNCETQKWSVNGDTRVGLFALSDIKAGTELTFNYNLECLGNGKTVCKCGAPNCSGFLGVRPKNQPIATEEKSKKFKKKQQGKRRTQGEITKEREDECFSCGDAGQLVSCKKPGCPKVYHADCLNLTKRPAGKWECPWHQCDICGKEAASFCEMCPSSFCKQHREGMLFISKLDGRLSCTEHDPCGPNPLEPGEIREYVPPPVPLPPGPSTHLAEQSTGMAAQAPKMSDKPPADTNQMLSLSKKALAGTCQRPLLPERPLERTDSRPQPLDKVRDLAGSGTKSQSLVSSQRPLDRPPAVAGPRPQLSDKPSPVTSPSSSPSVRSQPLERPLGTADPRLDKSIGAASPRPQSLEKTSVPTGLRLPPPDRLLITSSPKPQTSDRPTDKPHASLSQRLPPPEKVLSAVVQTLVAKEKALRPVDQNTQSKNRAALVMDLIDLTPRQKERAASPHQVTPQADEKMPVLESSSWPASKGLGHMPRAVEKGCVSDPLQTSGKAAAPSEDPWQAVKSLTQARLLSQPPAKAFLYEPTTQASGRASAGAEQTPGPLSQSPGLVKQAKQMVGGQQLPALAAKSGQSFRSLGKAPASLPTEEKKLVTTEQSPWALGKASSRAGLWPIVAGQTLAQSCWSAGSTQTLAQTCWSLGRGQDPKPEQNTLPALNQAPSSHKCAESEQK
Histone-lysine N-methyltransferase EZH2 (Homo sapiens), Q15910 [UNDEFINED MUTATION], sequence (Q15910 whole entry, looked up, stated change not applied): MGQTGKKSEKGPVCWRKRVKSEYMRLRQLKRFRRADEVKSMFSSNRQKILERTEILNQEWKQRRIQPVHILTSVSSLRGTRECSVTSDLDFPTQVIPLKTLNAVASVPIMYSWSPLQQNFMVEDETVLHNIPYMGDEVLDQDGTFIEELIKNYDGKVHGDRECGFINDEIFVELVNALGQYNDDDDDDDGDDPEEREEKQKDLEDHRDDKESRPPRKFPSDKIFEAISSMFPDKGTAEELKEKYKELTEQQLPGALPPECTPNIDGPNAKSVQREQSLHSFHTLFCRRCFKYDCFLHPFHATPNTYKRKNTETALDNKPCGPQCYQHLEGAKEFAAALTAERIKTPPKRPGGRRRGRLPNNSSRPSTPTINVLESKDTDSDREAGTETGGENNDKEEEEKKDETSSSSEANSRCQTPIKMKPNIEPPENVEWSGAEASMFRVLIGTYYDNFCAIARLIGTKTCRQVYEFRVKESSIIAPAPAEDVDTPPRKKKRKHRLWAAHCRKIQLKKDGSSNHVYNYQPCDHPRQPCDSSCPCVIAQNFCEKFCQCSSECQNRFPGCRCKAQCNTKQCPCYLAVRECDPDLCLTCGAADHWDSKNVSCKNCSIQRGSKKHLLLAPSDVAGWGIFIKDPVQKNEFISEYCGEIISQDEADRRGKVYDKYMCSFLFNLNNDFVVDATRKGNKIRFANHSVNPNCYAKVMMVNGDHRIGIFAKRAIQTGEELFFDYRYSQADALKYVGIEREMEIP
Histone-lysine N-methyltransferase EZH2 (Homo sapiens), Q15910 [Y641N], sequence (Q15910 whole entry Y641N): as the sequence (Q15910 whole entry, looked up, stated change not applied) above, with Y641N counted along it
Histone-lysine N-methyltransferase EZH1 (Homo sapiens), sequence (Q92800 whole entry): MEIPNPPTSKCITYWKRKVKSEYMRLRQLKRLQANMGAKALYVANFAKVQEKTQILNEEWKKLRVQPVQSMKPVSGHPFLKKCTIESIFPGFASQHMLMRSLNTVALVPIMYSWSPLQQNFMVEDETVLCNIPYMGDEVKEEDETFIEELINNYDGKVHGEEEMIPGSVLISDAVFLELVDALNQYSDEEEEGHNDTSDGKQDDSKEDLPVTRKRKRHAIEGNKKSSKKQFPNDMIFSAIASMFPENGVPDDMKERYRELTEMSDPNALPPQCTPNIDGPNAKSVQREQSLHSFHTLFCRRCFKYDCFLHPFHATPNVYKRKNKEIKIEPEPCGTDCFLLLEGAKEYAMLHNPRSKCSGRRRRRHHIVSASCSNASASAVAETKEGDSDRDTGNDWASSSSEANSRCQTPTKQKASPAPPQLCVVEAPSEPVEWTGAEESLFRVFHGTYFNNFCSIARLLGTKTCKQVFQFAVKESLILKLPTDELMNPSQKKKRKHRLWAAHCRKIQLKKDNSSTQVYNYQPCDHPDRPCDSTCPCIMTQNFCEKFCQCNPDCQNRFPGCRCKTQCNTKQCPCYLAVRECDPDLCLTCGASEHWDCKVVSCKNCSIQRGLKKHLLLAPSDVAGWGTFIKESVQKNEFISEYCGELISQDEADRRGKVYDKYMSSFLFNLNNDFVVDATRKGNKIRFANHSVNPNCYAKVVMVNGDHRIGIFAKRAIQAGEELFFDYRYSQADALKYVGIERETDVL

## CCN(C(=O)C1CC1)c1cc(-c2ccc(N3CCN(CC4CC4)CC3)nc2C)cc(C(=O)NCc2c(C)cc(C)[nH]c2=O)c1C
Pfeiffer [1]
  inhibition in vivo at 50 mg/kg: 91.8%
Raji
  GI50: > 10000 nM
[2]
  inhibition: 0%
SU-DHL-6
  GI50: 1100 nM
[3]
  inhibition: 16%
[4]
  GI50: 200 nM
[5]
  t1/2: 5.38 h
[6]
  inhibition: 12%
[7]
  inhibition: 98%
KARPAS-422
  Activity: Active
[8]
  inhibition: 1%
[9]
  inhibition: 1%
[10]
  inhibition: 2%
[11]
  inhibition: 90%
[12]
  Vz: 36.559 L/kg
[13]
  inhibition: 0%
[14]
  Activity: Non-Toxic
[15]
  inhibition: 100%
[16]
  Vz: 18.638 L/kg
[17]
  Vz: 20.833 L/kg
[18]
  AUC(0-t) at 24 h: 366 ng·h/mL
U2932
  GI50: > 10000 nM
[19]
  inhibition: 0%
Pfeiffer [20]
  inhibition in vivo at 200 mg/kg: 100%
[21]
  AUC(0-inf): 195 ng·h/mL
[22]
  inhibition: 92%
[23]
  inhibition: 100%
[24]
  inhibition: 87%
[25]
  CL: 44.75 mL/min/kg
[26]
  AUC(0-inf): 1000 ng·h/mL
